Laboratory results reported in patent US20240261318A1, “ANTI-AGING COSMETIC COMPOSITION” (LG HOUSEHOLD & HEALTH CARE LTD., priority 2021, published 2024).

Tested on: FGF10
Assay: Analysis of mRNA expression of FGF10 in human dermal fibroblasts (qPCR)
Format: cell-based
Settings: for Expression level (% relative to control): FGF10 mRNA, human dermal fibroblasts, 48 hours; for mRNA expression of FGF 10: human fibroblasts treated with the single substance, result in words
Description: Human dermal fibroblasts (neonatal) were purchased from Lonza and then cultured in a carbon dioxide incubator at 37° C. and 5% carbon dioxide. In this case, as a medium for culturing, a medium containing Dulbecco's modified eagle medium (DMEM; Thermo Fisher Scientific) with 10% fetal bovine serum (FBS) and 1% antibiotics (penicillin/streptomycin) was used. Afterward, 20000 cells were seeded in a 6-well plate, and 24 hours later, the DMEM culture medium was treated with each sample having compositions shown in Tables 1 and 2 and cultured again for another 48 hours. As a control, a DMEM culture medium not including any other components was used.

Structure (SMILES) | Expression level (% relative to control) (Table 1, sample at 8 ppm) [%] | Expression level (% relative to control) (Table 2, sample at 8 ppm) [%] | mRNA expression of FGF 10 | Expression level (% relative to control) (Table 1, sample at 0.2 ppm) [%] | Expression level (% relative to control) (Table 2, sample at 0.2 ppm) [%]
Nc1ncnc2c1ncn2[C@@H]1O[C@H](CO)[C@@H](O)[C@H]1O [Adenosine, reference compound] | 88 | 88 | no effect on increasing the expression of FGF 10 | – | –
C=C1CC[C@@H]2[C@](C)(CO)[C@H](O)CC[C@@]2(C)[C@@H]1C/C=C1/C(=O)OC[C@H]1O [Andrographolide, andrographolide] | – | – | promoted | 141 | –
O=c1c(O)c(-c2ccc(O)c(O)c2)oc2cc(O)cc(O)c12 [Quercetin, quercetin] | – | – | promoted | – | 63
Nc1ncnc2c1ncn2[C@@H]1O[C@H](CO)C[C@H]1O [Cordycepin, cordycepin] | 148 | – | promoted | – | 102
